The source of these data is ChEMBL document CHEMBL4425085, “Challenges and Perspectives on the Development of Small-Molecule EGFR Inhibitors against T790M-Mediated Resistance in Non-Small-Cell Lung Cancer” (J Med Chem, 2016).

Assay [1] is filed under the species Homo sapiens. The assay is described as follows: Selectivity ratio of Kd for wild type partial length human EGFR to Kd for partial length human EGFR L858R/T790M double mutant.
Assay [2] addresses Epidermal growth factor receptor (Homo sapiens, UniProt P00533, L858R/T790M). In words: Binding affinity to partial length human EGFR L858R/T790M double mutant expressed in mammalian system by KINOMEscan assay.
Assay [3] relates to NCI-H1975. In words: Antiproliferative activity against human NCI-H1975 cells expressing EGFR L858R/T790M double mutant by MTS assay. In kind it is functional, cell-based. A general note: Tetrazolium assays rely on reduction of a dye to a coloured formazan, in cell work by metabolically active cells.
Assay [4] has as its system A-431. In words: Antiproliferative activity against human A431 cells expressing wild type EGFR by MTS assay. It is filed as cell-based.
The target of assay [5] is Epidermal growth factor receptor (Homo sapiens, UniProt P00533). The assay is described as follows: Binding affinity to wild type partial length human EGFR expressed in bacterial system by KINOMEscan assay.
Epidermal growth factor receptor (Homo sapiens, UniProt P00533), sequence (P00533 whole entry): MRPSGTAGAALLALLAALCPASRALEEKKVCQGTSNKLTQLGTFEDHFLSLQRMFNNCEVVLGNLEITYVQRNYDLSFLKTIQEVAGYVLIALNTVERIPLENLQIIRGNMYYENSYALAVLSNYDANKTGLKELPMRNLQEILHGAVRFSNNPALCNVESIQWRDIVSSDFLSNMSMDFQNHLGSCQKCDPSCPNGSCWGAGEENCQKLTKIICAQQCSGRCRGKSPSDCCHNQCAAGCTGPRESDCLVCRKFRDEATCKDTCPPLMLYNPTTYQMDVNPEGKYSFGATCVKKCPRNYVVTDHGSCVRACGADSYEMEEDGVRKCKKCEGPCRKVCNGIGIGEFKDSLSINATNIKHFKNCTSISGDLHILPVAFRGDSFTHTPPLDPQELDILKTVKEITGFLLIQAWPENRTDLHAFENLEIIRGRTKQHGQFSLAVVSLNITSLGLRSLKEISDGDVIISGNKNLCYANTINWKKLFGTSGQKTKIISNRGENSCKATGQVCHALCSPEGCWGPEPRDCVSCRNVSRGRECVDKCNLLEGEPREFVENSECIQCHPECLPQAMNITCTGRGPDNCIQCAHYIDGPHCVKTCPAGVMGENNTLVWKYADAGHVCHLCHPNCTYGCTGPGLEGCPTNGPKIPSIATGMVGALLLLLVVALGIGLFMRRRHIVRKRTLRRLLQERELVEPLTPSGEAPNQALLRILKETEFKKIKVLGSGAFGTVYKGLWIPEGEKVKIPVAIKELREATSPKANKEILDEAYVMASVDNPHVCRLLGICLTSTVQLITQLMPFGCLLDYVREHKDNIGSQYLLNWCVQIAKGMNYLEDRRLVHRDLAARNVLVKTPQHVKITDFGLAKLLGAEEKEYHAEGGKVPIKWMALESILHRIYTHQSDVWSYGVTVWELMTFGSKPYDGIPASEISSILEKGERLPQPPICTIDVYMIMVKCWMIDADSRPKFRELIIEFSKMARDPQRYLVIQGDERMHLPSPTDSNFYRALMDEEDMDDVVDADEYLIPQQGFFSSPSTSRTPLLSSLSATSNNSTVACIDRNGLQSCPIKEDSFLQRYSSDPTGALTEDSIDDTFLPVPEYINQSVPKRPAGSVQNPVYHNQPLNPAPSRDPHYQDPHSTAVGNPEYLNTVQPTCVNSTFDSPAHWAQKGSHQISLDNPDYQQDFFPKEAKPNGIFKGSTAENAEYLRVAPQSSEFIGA
Assay [6] is described as follows: Selectivity ratio of IC50 for human A431 cells expressing wild type EGFR to IC50 for human NCI-H1975 cells expressing EGFR L858R/T790M double mutant.
For assay [7], the system named is BaF3. The assay is described as follows: Antiproliferative activity against mouse BA/F3 cells expressing wild type EGFR after 72 hrs by MTS assay. It is filed as cell-based. The settings on record: BaF3, 72 h.
Assay [8] has as its system BaF3. The assay is described as follows: Selectivity ratio of IC50 for gefitinib sensitive mouse BA/F3 cells expressing wild type EGFR to IC50 for gefitinib resistant mouse BA/F3 cells expressing EGFR L858R/T790M double mutant.
Assay [9] has as its system BaF3. In words: Antiproliferative activity against gefitinib sensitive mouse BA/F3 cells expressing EGFR exon 19 del E746_A750 activating mutant after 72 hrs by MTS assay. The following applies: BaF3, 72 h. In kind it is functional, cell-based.
Assay [10] relates to BaF3. In words: Potency index, ratio of gefitinib IC50 to compound IC50 for gefitinib resistant mouse BA/F3 cells expressing EGFR L858R/T790M double mutant. It is filed as functional.
Assay [11] concerns NCI-H1975. In words: Potency index, ratio of gefitinib IC50 to compound IC50 for gefitinib resistant human NCI-H1975 cells expressing EGFR L858R/T790M double mutant. It is filed as functional.
Assay [12] deals with NCI-H1975. In words: Antiproliferative activity against gefitinib resistant human NCI-H1975 cells expressing EGFR L858R/T790M double mutant after 72 hrs by MTS assay. It is filed as functional, cell-based. The settings on record: NCI-H1975, 72 h.
Assay [13] has as its system BaF3. In words: Antiproliferative activity against gefitinib resistant mouse BA/F3 cells expressing EGFR L858R/T790M double mutant after 72 hrs by MTS assay. It is filed as functional, cell-based. The following applies: BaF3, 72 h.
In assay [14] the test system is PC-9. In words: Antiproliferative activity against gefitinib resistant human PC9 cells expressing EGFR del E746_A750/T790M mutant after 72 hrs by MTS assay. It is filed as functional, cell-based. The settings on record: PC-9, 72 h.
Assay [15] relates to NCI-H1975. The assay is described as follows: Antiproliferative activity against human NCI-H1975 cells expressing EGFR L858R/T790M double mutant assessed as decrease in cell viability after 48 hrs by WST assay. It is filed as functional, cell-based. The settings on record: NCI-H1975, 48 h.

pIC50, pKd: −log10 of the molar value.

Epidermal growth factor receptor (Homo sapiens, UniProt P00533, L858R/T790M), sequence (P00533 25-1210 T790M/L858R limits assumed): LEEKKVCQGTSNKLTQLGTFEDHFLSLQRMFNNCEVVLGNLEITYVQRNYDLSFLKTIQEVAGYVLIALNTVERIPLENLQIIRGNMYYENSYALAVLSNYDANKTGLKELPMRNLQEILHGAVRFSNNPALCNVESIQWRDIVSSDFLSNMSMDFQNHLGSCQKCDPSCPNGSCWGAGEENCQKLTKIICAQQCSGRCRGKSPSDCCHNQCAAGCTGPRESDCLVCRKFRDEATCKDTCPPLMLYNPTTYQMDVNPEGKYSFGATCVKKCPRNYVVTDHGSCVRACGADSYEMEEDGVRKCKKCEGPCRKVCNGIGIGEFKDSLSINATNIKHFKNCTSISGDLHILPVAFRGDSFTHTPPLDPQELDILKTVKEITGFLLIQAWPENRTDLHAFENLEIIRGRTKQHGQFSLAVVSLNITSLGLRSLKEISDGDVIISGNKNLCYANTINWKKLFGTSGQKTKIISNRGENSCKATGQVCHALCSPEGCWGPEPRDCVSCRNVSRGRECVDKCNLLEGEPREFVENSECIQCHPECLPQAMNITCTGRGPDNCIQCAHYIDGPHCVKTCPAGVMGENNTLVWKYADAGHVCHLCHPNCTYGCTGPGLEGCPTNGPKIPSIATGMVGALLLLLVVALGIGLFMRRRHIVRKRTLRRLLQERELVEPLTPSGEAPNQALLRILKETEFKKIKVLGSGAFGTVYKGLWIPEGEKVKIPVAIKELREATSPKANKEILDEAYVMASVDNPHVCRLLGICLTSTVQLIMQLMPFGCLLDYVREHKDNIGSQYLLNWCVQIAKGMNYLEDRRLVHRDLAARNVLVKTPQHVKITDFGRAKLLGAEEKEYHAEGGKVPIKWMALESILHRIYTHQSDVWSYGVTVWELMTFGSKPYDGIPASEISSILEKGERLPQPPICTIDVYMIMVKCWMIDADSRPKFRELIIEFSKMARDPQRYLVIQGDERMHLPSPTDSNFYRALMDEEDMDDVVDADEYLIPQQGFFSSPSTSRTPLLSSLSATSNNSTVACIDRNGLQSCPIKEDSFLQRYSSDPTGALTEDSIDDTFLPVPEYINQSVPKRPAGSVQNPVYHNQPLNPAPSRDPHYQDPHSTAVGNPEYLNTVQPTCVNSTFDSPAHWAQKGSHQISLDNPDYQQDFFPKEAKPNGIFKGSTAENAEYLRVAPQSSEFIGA

By pKd is commonly meant the Kd on a negative log10 scale, so that one unit is a factor of ten. Low values mean a high Kd, high ones a low Kd. A word on the pIC50: it is the negative decadic logarithm of the IC50, by convention in mol/L. With `C=CC(=O)Nc1cccc(-n2c3nc(Nc4ccc(N5CCOCC5)cc4OC)ncc3c(=O)n3ccnc23)c1`, in assay [1], the Selectivity ratio came to 156. Further, the pKd was 8.21 in [2] and 6.02 in [5]. Further, the pIC50 in assay [3] was 6.32; in assay [4], < 4.52. Moreover, the “Ratio IC50” value in assay [6] was found to be 63.

Regarding `C=CC(=O)Nc1cccc(N2C3=NCCCCN3C(=O)c3cnc(Nc4ccc(N5CCN(C)CC5)cc4OC)nc32)c1`, in assay [1], the Selectivity ratio was found to be 20. The pKd in [2] was 9.06; in [5], 7.77. The negative logarithm of the IC50 (pIC50) in [3] is 6.19; in [4] it was 5.81. For the same molecule, the “Ratio IC50” value in assay [6] is 3.

`C=CC(=O)Nc1cccc(Oc2nc(Nc3ccc(N4CCN(C)CC4)cc3)ncc2Cl)c1`: the pIC50 was 7.62 in [7], 8.70 in [9], 7.54 in assay [12] and 8.30 in assay [13]. For the same molecule, the “Ratio IC50” value in [8] is given as 5; in assay [10], 30 - 100; in [11] it was 30 - 100.

For the molecule `C=CC(=O)Nc1cccc(-n2c3nc(Nc4ccc(N5CCN(NC)CC5)cc4OC)ncc3c(=O)n3ccnc23)c1`, the Selectivity ratio in assay [1] came out at 119. Also, the figures for the pKd in assay [2] and in assay [5] were 8.59 and 6.51, respectively. Moreover, the pIC50 in assay [3] is 7.07; in [4], 4.84. For the same molecule, in assay [6], the “Ratio IC50” value is given as 169.

Turning to `C=CC(=O)Nc1cccc(-n2c3nc(Nc4ccc(N5CCN(C)CC5)cc4OC)ncc3c(=O)n3ccnc23)c1`, the Selectivity ratio in [1] came out at 78. Moreover, the pKd in assay [2] is 8.74; in assay [5], 6.85. Further, the pIC50 in assay [3] was 6.84; in assay [4] it was 5.53. Also, in assay [6], the “Ratio IC50” value amounted to 21.

`C=CC(=O)Nc1cccc(-n2c3nc(Nc4ccc(N5CCN(C)CC5)cc4OCC)ncc3c(=O)n3ccnc23)c1`: the Selectivity ratio in assay [1] worked out at 136. Besides, the pKd in [2] was 8.51; in [5], 6.38. Also, the pIC50 in [3] is 6.40; in assay [4], 5.28. Besides, the “Ratio IC50” value in assay [6] is 13.

As to `C=CC(=O)Nc1cccc(-n2c3nc(Nc4ccc(N5CCN(C)CC5)cc4OC)ncc3c(=O)n3c4ccccc4nc23)c1`, in assay [1], the Selectivity ratio is 100. For the same molecule, the pKd in [2] was 8.96; in assay [5], 6.96. Moreover, the pIC50 in [3] was 6.51; in assay [4], 5.45. Besides, in [6], the “Ratio IC50” value stood at 12.

Take `C=CC(=O)Nc1cccc(Sc2nc(Nc3ccc(N4CCN(C)CC4)cc3)ncc2Cl)c1`: the pIC50 is 7.49 in [7], 8.70 in assay [9], 8.05 in assay [12] and 8.05 in assay [13]. The “Ratio IC50” value in assay [8] is given as 4; in assay [10], 30 - 100; in assay [11], 30 - 100.

As to `C=CC(=O)Nc1cccc(Oc2nc(Nc3ccc(N4CCN(C)CC4)cc3OC)ncc2Cl)c1`, the pIC50 in assay [7] is 6.95; in assay [14], 7.85; in [9], 8.52; in assay [3] it was 7.26; in assay [4], 5.98; in assay [12], 7.33. This molecule also had a pIC50 in assay [13] of 8.10.

For the molecule `CN(C)C/C=C/C(=O)Nc1cc2c(Nc3ccc(F)c(Cl)c3)ncnc2cc1O[C@H]1CCOC1` [AFATINIB], in assay [15], the pIC50 is 6.05.
